PMC6614837 (Nucleic Acids Research, 2019)
“Also recorded” adds a separate entry of the source.

Legend:
[1] = target: T1, RNase P protein (TmP, P protein) (Thermotoga maritima, UniProt Q9X1H4 1-117); experiment: BLI; conditions: BLI (Octet RED96): 20 mM HEPES pH 7.4, 100 mM ammonium acetate, 10 mM MgCl2, 2.5-5% DMSO, 30 C; P protein:P RNA in 33 mM Tris, 66.6 mM HEPES, 200 mM ammonium …
T1 sequence: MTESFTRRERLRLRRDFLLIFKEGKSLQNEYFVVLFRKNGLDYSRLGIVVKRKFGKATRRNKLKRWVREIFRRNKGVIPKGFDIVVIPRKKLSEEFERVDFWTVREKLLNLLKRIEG

[2] = system: P RNA; experiment: Biolayer interferometry binding to immobilized P RNA; parameters: species or system T. maritima; conditions: BLI, P RNA on SSA biosensors via biotinylated oligonucleotide
Method: (§1) Real-time binding assays of the holoenzyme, P RNA, P protein, the substrate minihelix and the 5′-leader to individual compounds were performed by biolayer interferometry using an Octet RED96 system (ForteBio). For the holoenzyme or P RNA, a 5′ biotinylated RNA oligonucleotide with the sequence 5′biotin-CAUUCCAGACGAU was immobilized on Super Streptavidin (SSA) biosensors. Then, a modified P RNA or holoenzyme was added. The P RNA modification consisted of a sequence with part of the P1 stem sequence complementary to the biotinylated oligonucleotide (AUCGUCUGGA) (Supplementary Figure S23A). P1 is far from the active site or other regions involved in specific interactions (Supplementary Figure S23B) ([19]). The activity of this construct was indistinguishable from the wild-type holoenzyme. Alternatively, the holoenzyme was immobilized through the His-tagged P protein from T. maritima at 0.05 mg/ml (3.4 μM) on Ni-NTA biosensors. Control biosensors were used to subtract non-specific binding of compounds to the biosensor surface. All assay steps (immobilization, wash, baseline, association, and dissociation) were performed in 20 mM HEPES pH 7.4, 100 mM ammonium acetate, 10 mM MgCl2, 2.5% DMSO. The assays were performed on black bottom 96-well microplates (Greiner Bio-One 655209) in a total volume of 200 μl, at 30°C with orbital shaking at 1000 rpm. Experiments were controlled with the software Data Acquisition 8.2 (ForteBio, Inc.). Kinetic binding parameters were calculated using Data Analysis 8.2 (ForteBio, Inc.). After subtraction of reference biosensors, the binding curves were aligned to the X- and Y-axis and the association-dissociation inter-step curve in order to get a common baseline for the association and dissociation phases.
Figure 3. The inhibitors purpurin and hematein bind to the holoenzyme. (A) Top. […] Bottom. […] (B) The relative affinities of the inhibitors for the P RNA or the holoenzyme differ. Binding sensorgrams obtained by biolayer interferometry (BLI). […]

[3] = system: P RNA; experiment: Gel-based activity assay, bipartite pre-tRNA substrate, P RNA alone; type: biochemical, T. maritima; conditions: 100 mM AmOAc, 10 mM MgCl2
Method: For gel-based activity assays, reactions were prepared as described in the previous section (fluorescence activity assay), incubated for 1–15 min at 37–50°C, then loaded onto a denaturing 7 M urea–20% acrylamide gel in the case of the Mh substrate or 19% acrylamide (40% acrylamide/bisacrylamide 38.5:1.5) for the bipartite pre-tRNA substrate. The activity conditions for the gel reported in Figure 3A, to monitor the cleavage of the holoenzyme and P RNA, were under 100 mM AmOAc and 10 mM MgCl2. The gels (13 × 16 × 0.15 cm) were electrophoresed at 20 V/cm for 2–3 h. UV shadowing or ethidium bromide staining was used to visualize RNA cleavage. Detection of minihelix fluorescence was achieved without staining using a UV lamp with excitation at ∼254 nm.
Figure 3. The inhibitors purpurin and hematein bind to the holoenzyme. (A) Top. […] Bottom. […] (B) The relative affinities of the inhibitors for the P RNA or the holoenzyme differ. Binding sensorgrams obtained by biolayer interferometry (BLI). P RNA or RNase P holoenzyme was immobilized on super streptavidin (SSA) biosensors through a 5′-biotinylated RNA oligonucleotide complementary to a region on the P1 stem of P RNA (see Materials and Methods). […] In contrast, gentian violet binds not only to P RNA but also to the Mh substrate (Supplementary Figure S16). (C) Molecular Dynamics (MD) simulations of RNase P protein in complex with the validated inhibitors. In each panel, semitransparent spheres represent the geometric center, over a 200 ns trajectory, of the corresponding tested compound. The 5′-leader (yellow) is shown for reference purposes only; it was not included in the simulation. Sphere color coding indicates the starting and final positions in blue and red, respectively. […] Purpurin's starting conformation corresponds to that observed in the crystal structure in complex with the P protein (PDB code: 6MAX. See Figure 5).

[4] = target: T2, P protein (Thermotoga maritima, UniProt Q9X1H4); experiment: Binding hindrance of the 5′ RNA leader to the P protein (BLI); parameters: species or system T. maritima; conditions: compound 100 μM, 5′ RNA leader 5 μM
T2 construct: GST (cleaved yes); made in house; host or cells: E. coli BL21(DE3)pLysS
T2 sequence (Q9X1H4 1-117): T1 sequence
Method: A 5′ RNA leader sequence with 10-bases 5′-GGAAAAAGAU-3′ was purchased from IDT and used at a concentration of 5 μM. This sequence is the same used to obtain the crystal structure of the RNase P holoenzyme ([19]). The His-tagged P protein was immobilized on Ni-NTA biosensors at 0.05 mg/ml (3.4 μM). […] The steps performed on the assay and their periods were: P protein immobilization (400 s), wash (100 s), baseline […] (1000 rpm), compound association (800 s), compound dissociation (200 s) (500 rpm), baseline (100 s), 5′ leader association (200 s), 5′ leader dissociation (200 s) (1000 rpm). The assay was performed at 30°C. The compounds were used at 100 μM throughout. All assay steps were performed in 20 mM HEPES pH 7.4, 100 mM ammonium acetate, 10 mM MgCl2, 5% DMSO.
5 ′ RNA leader. (A) Experimental design of 5′ RNA leader binding hindrance experiments. Figures B-F are based on the analysis region depicted in panel A, where association and dissociation of the 5′ RNA leader to the P protein (TmP) is measured over time. P protein at 3.5 µM was immobilized on Ni-NTA biosensors for 300 s, while compounds were assayed at 100 µM and the […]
binding, in contrast with hematein (E) and purpurin (F).
(1 picture or pasted object on this page, not shown here)

[5] = target: minihelix (Mh); experiment: Biolayer interferometry binding to biotinylated minihelix substrate; conditions: BLI
Method: 3′-Biotinylated minihelix was purchased from Integrated DNA Technologies (IDT) (24-mer RNA sequence, 5′-[…]-3′-Biotin). The biotinylated minihelix was immobilized on Super Streptavidin (SSA) biosensors at a concentration of 10 μM. […] For the titration experiments, 10 μM of 3′-biotinylated minihelix was immobilized for 300 s on Super Streptavidin (SSA) biosensors, followed by a wash step of 100 s and association and dissociation steps of 200 s in the presence of 6 different concentrations of compound ranging from 500 to 15.6 μM. SSA biosensors with no minihelix were used to measure non-specific binding of compounds. All other parameters (buffer, instrument control, analysis) are as described above.
Supplementary Figure 16. Binding assays monitor the interaction of compounds with the minihelix (Mh). Gentian violet and methylene blue bind in a dose-dependent relationship to the artificial minihelix substrate. […]
interaction between the minihelix and (A) gentian violet (KD=8 µM ) and (B) methylene blue A 3′-biotinylated substrate minihelix at 10 µ M was immobilized on super streptavidin (SSA) biosensors for 300 s.
Supplementary Figure 17. pre-tRNA displaces bound purpurin in a dose-response […]
indicating a true competition between purpurin and pre-tRNA binding sites. […]

[6] = target: T3, RNase P holoenzyme (Thermotoga maritima, UniProt Q9X1H4); experiment: Displacement of pre-tRNA from the holoenzyme (BLI); type: binding, T. maritima; conditions: holoenzyme on Ni-NTA biosensors, compound 0–400 μM, then pre-tRNA
T3 construct: GST (cleaved yes); made in house; host or cells: E. coli BL21(DE3)pLysS
T3 sequence (Q9X1H4 1-117): T1 sequence
Method: as §1
Figure 4. Characterization of the inhibition of T. maritima RNase P by purpurin. (A) Best global fit for inhibition of RNase P in the presence of varying concentrations of fluorescent Mh substrate. […] Symbols represent the mean ± standard error as determined from three independent experiments at each concentration. See also Supplementary Figure S18. […] Binding sensorgrams obtained by biolayer interferometry (BLI). RNase P holoenzyme at 400 nM was immobilized on Ni-NTA. […] Binding sensorgrams obtained by biolayer interferometry (BLI). RNase P holoenzyme was immobilized on Ni-NTA biosensors, incubated with purpurin at varying concentrations (0–400 μM), and then the association and dissociation pre-tRNA was monitored. […] See also Supplementary Figure S17.

[7] = system: RNase P from E. coli; parameters: method as in PMID 24097434; conditions: cited from earlier work
[8] = target: T4, RNase P holoenzyme from Thermotoga maritima (Thermotoga maritima, UniProt Q9X1H4); experiment: Real-time fluorescence-based (FRET) RNase P activity assay with minihelix (Mh) substrate; type: biochemical
T4 construct: made in house
T4 sequence (Q9X1H4 1-117): T1 sequence
Method: The reconstitution of the RNase P holoenzyme was performed as described in ([40],[19]). This protocol produces a homogeneous and functional ribozyme that can be crystallized by mixing P RNA and P protein in a 1:1.1 molar ratio in 1× TH buffer (33 mM Tris–HCl, 66 mM HEPES, pH 7.4) and 400 mM ammonium acetate (AmOAc). The mixture was heated to 95°C for 2 min in a water bath, then chilled on ice for 2 min, after which MgCl2 was added to a final concentration of 100 mM. […] This higher concentration was used in all experiments described herein. The holoenzyme was further incubated at 50°C for 10 min and 37°C for 40 min. The final concentration of holoenzyme was 333 nM (35.6 μg/ml of P RNA and 4.7 μg/ml of P protein).
The minihelix (Mh) substrate (Figure 1A) was adopted from a previously characterized RNase P substrate, pMini3bpUG ([32],[33]) and coupled to either Black Hole Quencher 1 (BHQ1) or Black Hole Quencher 2 (BHQ2) at the 5′-end and Alexa Fluor 488 at the 3′-end. This probe was purchased either from Sigma-Aldrich or Integrated DNA Technologies (IDT). A requested scale of […] yielded between 6.3 and 20 nmol (57.5 to 181 μg, enough for 1300–4000 reactions depending on the experimental substrate concentration). Before use, the minihelix was diluted from a 100 μM stock (dissolved in water) to 3.6 μM in activity buffer H (33 mM Tris–HCl, 66 mM HEPES, pH 7.4, 400 mM AmOAc and 100 mM MgCl2).
Reactions were performed in a total volume of 20 μl. Pipetting was done by hand using multichannel pipettes. First, an 18 μl reaction mixture containing 16.5 μl of activity buffer (H for Mh or L supplemented with 10% PEG 200 for bipartite pre-tRNA) and 270 nM (Mh) or 135 nM (bipartite pre-tRNA) (1.5 or 0.7 μl of the 3.6 μM stock) of the fluorescent substrate probe was pre-incubated on ice for at least 5 m in a black polystyrene 384-well microtiter microplate with a flat transparent bottom (Corning ref 3540). The holoenzyme was then added at a final concentration of 33 nM (2 μl of a 333 nM stock) in 1× TH buffer and mixed. Kinetic activity was monitored in a Synergy MX Multimode Detector (BioTek) at 37°C with rapid agitation. At least 20 readings were taken per well every 15 s. The probe was excited at 485 nm, and its emission was monitored at 535 nm with an integration time of 1 s. From the plots of relative fluorescent units (RFU) versus time, linear regression was used to determine the slopes in the linear portion of the curves, using at least 12 data points to obtain initial velocities. Non-linear fitting to obtain the Michaelis–Menten parameters was performed using GraphPad Prism® 6.01 software.
Supplementary Figure 3. FRET assays of RNase P with the fluorescent substrate are reproducible. (A) Representative plots of kinetic assays performed in a single run. The standard assay (SA), (+), was performed at 37° C in a total volume of 20 µL and contained RNase P holoenzyme at 33 nM, substrate minihelix (Mh) at 270 nM, 10% DMSO and activity buffer (AB).
The negative control assay (-) contained 100 mM CaCl2 in place of MgCl2. Ten to twelve wells were monitored simultaneously in a typical assay. (B) Zoomed view of the linear region of the kinetic assays shown in panel A. Fluorescence readings were performed every 15-20 seconds.
Linear regression calculations were done using the GraphPad Prism 7 software. (C) The coefficient Z’-factor (1) was used as an indicator of reproducibility and was calculated based on the relative fluorescence units (RFU) in the plateau phase (taken at 20 minutes). The Z’-factor has a […]
presented in this work were either measured in triplicate or confirmed in subsequent assays. (D) […]
assay is robust. The IC50 values reported in Figures 1C and 2 were calculated according to this kinetic parameter. There is a negative drift in fluorescence in the case of the negative control.
However, it should be noted that the mean value of it (-279) is much smaller than the signal of the […]
positive control (3397). […]

Compound P RNA has a Kd [1] of 0.5 nM.
In the case of `CN(C)c1ccc([C+](c2ccc(N(C)C)cc2)c2ccc(N(C)C)cc2)cc1.[Cl-]` [Gentian violet, tris(4-(dimethylamino)phenyl)methylium chloride, reference compound], the “Binding to P RNA” value [2] is reported as “binds more strongly to it”, the “Inhibition of the P RNA reaction” value [3] is reported as “inhibits the reaction via P RNA” and the “Hindrance of 5′ RNA leader binding to the P protein” value [4] is reported as “did not interfere with RNA leader”. The “Hindrance of 5′ RNA leader binding to the P protein” value ([4]; listed as gentian violet) was “do not impede the leader binding”, the Kd ([5]; 3′-biotinylated minihelix 10 μM on SSA biosensors) was 8000 nM and the “Binding to the minihelix substrate” value ([5]; initial screening at 1 mM and titration) was “binding signal; also recorded: binds to the biotinylated minihelix substrate in the micromolar range”. For the same compound, the “Dose–response displacement of pre-tRNA” value [6] was “No”.
For “Mh: 24-nucleotide minihelix RNase P model substrate with 5′ Black Hole Quencher and 3′ Alexa Fluor 488 (GAUCUGAAUGCGGAAACGCGCCAC; 5' BHQ quencher, 3' Alexa Fluor 488, further chemistry not given here)”, the “kobs (previously reported)” value [7] is listed as 0.86 min⁻¹, the Kd ([7]; read-out: KD (previously reported)) is listed as 2800 nM and the kcat ([8]; Michaelis–Menten fit) is listed as 0.112 s⁻¹. The Km ([8]; holoenzyme 11 nM, Michaelis-Menten fit) was 1.3 µM.
